{"source": "patent US4985445A", "about": "“Cancer cell metastasis inhibitors and novel compounds” (Meiji Seika Kaisha, Ltd., priority 1988, dated 1991)", "key": {"[1]": {"tested_on": "B16 subline of high pulmonary metastatic potential", "test": "Inhibition of pulmonary metastasis of B16 subline pretreated with compound and injected i.v. into BDF1 mice", "type": "in vivo, murine; mouse BDF1", "settings": "for Inhibition of metastasis to the lungs (in words): B16 subline, BDF1 mice", "experimental": "Based on the method described priviously (Method in Cancer Research, 15, 399-439, 1978), a subline of high metastatic potential (high pulmonary colonization) was selected from murine melanoma B16 by repeating the i.v. transplantation of the tumor cells in BDF1 mice and the isolation of pulmonary metastatic clones.\nEvaluation of the metastasis inhibiting activity was performed based on the method described previously (Proc. Natl Acad. Sci. USA, 83, 1752-1756, 1986, Cancer Research, 46, 858-862, 1986).\nFirstly, the B16 subline of high metastatic potential was inoculated into Dulbecco's ME medium (DME medium) supplemented with 10% bovine fetal serum and the compound represented by general formula (I) described above was added thereto.\nThe B16 subline of high pulmonary metastatic potential was inoculated into DME medium supplemented with 10% bovine fetal serum and 30, 100 or 300 μg/ml of N (3-phenylpropyl)-1-deoxynojirimycin was added thereto followed by incubation at 37° C. for 3 days in the presence of 5% CO2.\nInhibition of metastasis was examined in a manner similar to Test Example 2 except that N-(3-phenyl-2-propenyl)-1-deoxy-nojirimycin and N-(3-p-chlorophenyl-3-methyl-2-propenyl)-1-deoxynojirimycin were used instead of N-(3-phenylpropyl)-1-deoxynojirimycin in Test Example 2. In this test example, however, 2.5×10^5 cells each of the B16 subline were transplanted to 3 mice for each group.\nThe B16 subline of high pulmonary metastatic potential was inoculated into DME medium supplemented with 10% bovine fetal serum and 30 μg/ml of N-(4-phenoxy-trans-2-butenyl)-1-deoxynojirimycin was added thereto followed by incubation at 37° C. for 3 days in the presence of 5% CO2. […] The number of colonies of the B16 subline formed on the surface of and in the lung was counted.\nInhibition of metastasis was examined in a manner similar to Test Example 5 except that N-(2-phenoxyethyl)-1-deoxynojirimycin was used instead of N-(4-phenoxy-trans-2-butenyl)-1-deoxynojirimycin in Test Example 5.\nThe B16 sibline of high pulmonary metastatic potential was inoculated into DME medium supplemented with 10% bovine fetal serum and 10 μg/ml of D-glucaro-δ-lactam calcium salt was added thereto followed by incubation at 37° C. for 3 days in the presence of 5% CO2. […] The number of the colonies formed on the surface of and in the lung was counted.\nInhibition of metastasis was examined in a manner similar to Test Example 8 except that D-glucaro-δ-lactam methyl ester and D-glucaro-δ-lactam ethyl ester were used instead of D-glucaro-δ-lactam calcium salt in Test Example 8.\nThe B16 subline of high pulmonary metastatic potential was inoculated into DME medium supplemented with 10% bovine fetal serum and 10 μg/ml of 2,6-di-O-(acetylsalicyloyl)-D-gluco-δ-lactam was added thereto followed by incubation at 37° C. for 3 days in the presence of 5% CO2.\nThe B16 subline of high pulmonary metastatic potential was inoculated into DME medium supplemented with 10% bovine fetal serum and 30 μg/ml of 6-O-triphenylmethyl-D-gluco-δ-lactam was added thereto followed by incubation at 37° C. for 3 days in the presence of 5% CO2.\nThe B16 subline of high pulmonary metastatic potential was inoculated into DME medium supplemented with 10% bovine fetal serum and 30 μg/ml of 1-deoxynojirimycin was added thereto followed by incubation at 37° C. for 3 days in the presence of 5% CO2."}, "[2]": {"tested_on": "murine tumor cell line L 929", "test": "Cytotoxic activity against L 929 (growth observed with inverted microscope, 4 days);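 on growth: + means growth and ± means marked inhibition and - means cell death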", "type": "cell-based", "settings": "for Cytotoxicity (in words): L 929, even at a concentration as high as 30 μg/ml; for Growth: 4 days", "experimental": "The B16 subline of high pulmonary metastatic potential and murine tumor cell line L 929 were cultured in DME medium supplemented with 10% bovine fetal serum at 37° C. in the presence of 5% CO2.\nThe B16 subline of high pulmanary metastatic potential and murine tumor cell line L 929 were cultured in DME medium supplemented with 10% bovine fetal serum at 37° C. in the presence of 5% CO2."}, "[3]": {"tested_on": "B16 subline of high pulmonary metastatic potential", "settings": "3 days", "experimental": "(§1) The B16 subline of high pulmonary metastatic potential and murine tumor cell line L 929 were cultured in DME medium supplemented with 10% bovine fetal serum at 37° C. in the presence of 5% CO2. Then, cells were detached from the Petri dish with trypsin-EDTA solution. The B16 subline and L 929 were suspended in the medium described above in 1×10^4 cells/ml and 1×10^3 cells/ml, respectively. Each suspension, 150 μl, was added to 50 μl of N-(3-phenylpropyl)-1-deoxynojirimycin solution or Adriamycin (control) solution. Incubation was performed for 3 days for the B16 subline and for 4 days for L 929 strain.\nas §1, with “of N-(4-phenoxy-trans-2-butenyl)-1-deoxynojirimycin” for “of N-(3-phenylpropyl)-1-deoxynojirimycin”, “days in” for “days for”, “L 929.” for “L 929 strain.”\nas §1, with “of D-glucaro-δ-lactam calcium salt” for “of N-(3-phenylpropyl)-1-deoxynojirimycin”, “(control) solutions.” for “(control) solution.”, “days in” for “days for”, “L 929.” for “L 929 strain.”\nThe B16 subline of high pulmonary metastatic potential and murine tumor cell line L 929 were cultured in DME medium supplemented with 10% bovine fetal serum at 37° C. in the presence of 5% CO2. Then, cells were detached from the Petri dish with trypsin-EDTA solution. The B16 subline and L 929 were suspended in the medium described above in 1×10^4 cells/ml and 1×10^3 cells/ml, respectively. Each suspension, 150 μl, was added to 50 μl of 2,6-di-O-(1-(p-chlorobenzoyl)-5-methoxy-2-methylindole-3-acetyl)-D-gluco-δ-lactam solution or and Adriamycin (control) solutions. Incubation was performed for 3 days in the B16 subline and for 4 days in L 929.\nThe B16 subline of high pulmanary metastatic potential and murine tumor cell line L 929 were cultured in DME medium supplemented with 10% bovine fetal serum at 37° C. in the presence of 5% CO2. Then, cells were detached from the Petri dish with trypsin-EDTA solution. The B16 subline and L 929 were suspended in the medium described above in 1×10^4 cells/ml and 1×10^3 cells/ml, respectively. Each suspension, 150 μl, was added to 50 μl of 6-O-triphenylmethyl-D-gluco-δ-lactam solution or Adriamycin (control) solutions. Incubation was performed for 3 days in the B16 sibline and for 4 days in L 929.\nThe B16 subline of high pulmonary metastatic potential was inoculated into DME medium supplemented with 10% bovine fetal serum and 30 μg/ml of 1-deoxynojirimycin was added thereto followed by incubation at 37° C. for 3 days in the presence of 5% CO2. […] Next, the cells were detached from the Petri dish with trypsin-EDTA solution. The cells were suspended in PBS- in 1×10^6 cells/ml as viable cells. This suspension, 0.1 ml, was intravenously injected in the tail vein of the mouse BDF1 (8 week age, male; 1 group, 3 mice). After feeding for 14 days, the mouse was sacrificed to excise the lungs. The number of colonies of the B16 subline on the surface of and in the lungs was counted."}, "[4]": {"test": "Acute toxicity (LD50) by mice", "settings": "mouse, in vivo"}}, "note": "Where two headings read alike, the source gives them in different places.", "data": [{"smiles": "O=C1N[C@H](COC(c2ccccc2)(c2ccccc2)c2ccccc2)[C@@H](O)[C@H](O)[C@H]1O", "note": "[6-O-Triphenylmethyl-D-gluco-δ-lactam, 6-O-triphenylmethyl-D-gluco-δ-lactam]", "values": [{"measurement": "Inhibition of metastasis to the lungs (in words)", "setting": "[1]", "value": "markedly inhibited"}, {"measurement": "Pulmonary Metastasis (Mean ± Standard Deviation)", "setting": "[1]; Table 14, 30 μg/ml, 3 mice, None 92 ± 21.3", "value": "17 ± 8.5", "unit": "no."}, {"measurement": "Cytotoxicity (in words)", "setting": "[2]", "value": "did not show marked cytotoxicity"}, {"measurement": "Growth", "setting": "[2]; Table 13, L 929, 10 μg/ml", "value": "+"}, {"measurement": "Growth", "setting": "[2]; Table 13, L 929, 30 μg/ml", "value": "+"}, {"measurement": "Growth", "setting": "[3]; Table 13, B16 subline, 3 μg/ml", "value": "+"}, {"measurement": "Growth", "setting": "[3]; Table 13, B16 subline, 10 μg/ml", "value": "+"}, {"measurement": "Growth", "setting": "[3]; Table 13, B16 subline, 30 μg/ml", "value": "+"}, {"measurement": "LD50", "setting": "[4]; sc", "value": "> 300", "unit": "mg/kg"}]}, {"smiles": "OC[C@@H]1[C@@H](O)[C@H](O)[C@@H](O)CN1C/C=C/COc1ccccc1", "note": "[N-(4-phenoxy-trans-2-butenyl)-1-deoxynojirimycin]", "values": [{"measurement": "Inhibition of metastasis to the lungs (in words)", "setting": "[1]", "value": "the number of colonies on the surface of and in the lungs was decreased"}, {"measurement": "Pulmonary Metastasis, Mouse 1", "setting": "[1]; Table 6, 10 μg/ml, 14 days", "value": 14, "unit": "no."}, {"measurement": "Pulmonary Metastasis, Mouse 2", "setting": "[1]; Table 6, 10 μg/ml, 14 days", "value": 48, "unit": "no."}, {"measurement": "Pulmonary Metastasis, Mouse 3", "setting": "[1]; Table 6, 10 μg/ml, 14 days", "value": 52, "unit": "no."}, {"measurement": "Pulmonary Metastasis, Mean ± Standard Derivation", "setting": "[1]; Table 6, 10 μg/ml, 14 days, None 135 ± 13.4", "value": "38 ± 20.9", "unit": "no."}, {"measurement": "Pulmonary Metastasis, %", "setting": "[1]; Table 6, 10 μg/ml, None = 100", "value": 28.1, "unit": "%"}, {"measurement": "Cytotoxicity (in words)", "setting": "[2]", "value": "did not show the marked cytotoxicity"}, {"measurement": "Growth", "setting": "[2]; Table 5, L 929, 3 μg/ml", "value": "+"}, {"measurement": "Growth", "setting": "[2]; Table 5, L 929, 30 μg/ml", "value": "+"}, {"measurement": "Growth", "setting": "[2]; Table 5, L 929, 100 μg/ml", "value": "+"}, {"measurement": "Growth", "setting": "[3]; Table 5, B16 subline, 3 μg/ml", "value": "+"}, {"measurement": "Growth", "setting": "[3]; Table 5, B16 subline, 10 μg/ml", "value": "+"}, {"measurement": "Growth", "setting": "[3]; Table 5, B16 subline, 30 μg/ml", "value": "+"}, {"measurement": "LD50", "setting": "[4]; ip", "value": "> 500", "unit": "mg/kg"}]}]}
